In patent US7071205B2 (Ligand Pharmaceuticals Incorporated, priority 2002, dated 2006):
pEC50, pIC50, pKi: −log10 of the molar value. Where two headings read alike, the source gives them in different places.

Assays:
hPR [1] = target: T1, hPR (Homo sapiens, UniProt P06401); test: Cotransfection assay, PR antagonist activity in CV-1 cells; type: cell-based; settings: for pIC50: antagonist potency IC50; for PR Antagonist CV-1 Cells Efficacy (%): percent maximal response relative to reference antagonist
T1 sequence (P06401 1-933): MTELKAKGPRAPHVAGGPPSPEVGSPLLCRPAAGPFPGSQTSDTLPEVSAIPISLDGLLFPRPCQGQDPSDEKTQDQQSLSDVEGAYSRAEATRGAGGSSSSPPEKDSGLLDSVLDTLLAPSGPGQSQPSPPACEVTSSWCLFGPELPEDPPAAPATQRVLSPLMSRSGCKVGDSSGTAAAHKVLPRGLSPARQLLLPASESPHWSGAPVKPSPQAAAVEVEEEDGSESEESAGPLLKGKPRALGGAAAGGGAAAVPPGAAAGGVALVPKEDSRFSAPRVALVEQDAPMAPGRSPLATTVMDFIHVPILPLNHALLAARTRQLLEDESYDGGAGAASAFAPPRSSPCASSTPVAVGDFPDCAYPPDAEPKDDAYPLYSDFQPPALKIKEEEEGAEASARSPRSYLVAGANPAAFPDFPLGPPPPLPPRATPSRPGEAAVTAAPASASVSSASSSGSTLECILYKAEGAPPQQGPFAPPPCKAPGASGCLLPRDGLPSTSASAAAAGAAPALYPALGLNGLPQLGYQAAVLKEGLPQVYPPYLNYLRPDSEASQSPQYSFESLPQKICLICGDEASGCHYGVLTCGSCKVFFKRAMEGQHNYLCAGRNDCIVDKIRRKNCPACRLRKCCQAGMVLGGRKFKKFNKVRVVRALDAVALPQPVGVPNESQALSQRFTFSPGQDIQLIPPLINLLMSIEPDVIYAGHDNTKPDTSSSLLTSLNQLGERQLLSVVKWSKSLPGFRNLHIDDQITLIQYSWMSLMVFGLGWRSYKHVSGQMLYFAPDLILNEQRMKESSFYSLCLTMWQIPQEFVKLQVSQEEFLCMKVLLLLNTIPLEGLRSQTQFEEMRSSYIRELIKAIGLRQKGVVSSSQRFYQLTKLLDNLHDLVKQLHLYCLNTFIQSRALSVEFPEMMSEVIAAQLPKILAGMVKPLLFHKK
Method: (§1) All the cotransfection experiments were carried out in 96-well plates by automation (Beckman Biomomek automated workstation).

immature rabbits = test: McPhail (Clauberg) assay of progestational activity; type: in vivo, rabbit; settings: minimum active dose; estradiol-primed immature rabbits, uterine glandular changes
Method: The in vivo activity of selected hPR modulator compounds of the present invention were evaluated utilizing the McPhail assay, according to the following illustrative Examples. The Clauberg or McPhail assay is a classic assay utilizing rabbits to measure progestational activity. […] This is followed by treatment with a progestin, which causes a large change in the glandular content of the uterus. It is this change in the glandular component, which is a measure of the progestational activity of a progestin. The measurement of these glandular changes are carried out histologically using stained sections of the uterus. The in vivo potency of the progestins is presented as the minimum active dose (MAD) in mg/kg.

hPR-A = target: T2, hPR-A (Homo sapiens, UniProt P06401); test: Receptor competitive binding assay
T2 sequence (P06401 1-769 isoform P06401-2): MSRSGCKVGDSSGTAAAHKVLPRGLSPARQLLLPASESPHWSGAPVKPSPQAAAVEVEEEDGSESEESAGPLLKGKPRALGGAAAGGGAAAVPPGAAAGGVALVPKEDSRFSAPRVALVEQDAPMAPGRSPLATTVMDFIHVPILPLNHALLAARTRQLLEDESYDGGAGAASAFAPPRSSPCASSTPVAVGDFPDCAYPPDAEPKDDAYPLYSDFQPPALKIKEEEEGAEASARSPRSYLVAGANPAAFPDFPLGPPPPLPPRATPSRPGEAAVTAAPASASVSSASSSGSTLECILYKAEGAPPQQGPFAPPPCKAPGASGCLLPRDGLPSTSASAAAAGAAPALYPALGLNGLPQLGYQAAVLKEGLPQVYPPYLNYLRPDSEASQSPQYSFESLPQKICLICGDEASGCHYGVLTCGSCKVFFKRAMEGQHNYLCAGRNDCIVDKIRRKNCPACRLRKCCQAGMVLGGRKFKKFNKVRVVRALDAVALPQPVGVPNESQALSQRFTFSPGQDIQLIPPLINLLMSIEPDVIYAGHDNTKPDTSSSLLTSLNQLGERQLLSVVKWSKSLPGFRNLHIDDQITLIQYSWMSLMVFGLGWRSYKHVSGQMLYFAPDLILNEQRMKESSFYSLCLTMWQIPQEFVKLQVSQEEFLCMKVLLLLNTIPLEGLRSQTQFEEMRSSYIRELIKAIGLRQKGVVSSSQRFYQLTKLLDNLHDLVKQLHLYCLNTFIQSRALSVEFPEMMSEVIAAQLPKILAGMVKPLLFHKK

hPR [2] = target: T1, hPR; test: Cotransfection assay, PR agonist activity in CV-1 cells; type: cell-based; settings: for PR Agonist CV-1 Cells Efficacy (%): MTV-LUC reporter, percent maximal response relative to progesterone
Method: as §1

[3] = Table 2, repeats PR binding Ki of Table 1, read-out: ki
[4] = CV-1 cells, agonist potency EC50, read-out: PR Agonist CV-1 Cells Potency
[5] = Table 2, repeats PR agonist potency of Table 1, read-out: EC50

Row | Compound | pIC50 (hPR [1]) | PR Antagonist CV-1 Cells Efficacy (%) (hPR [1]) | MAD (immature rabbits) [mg/kg] | pKi (hPR-A; [3]) | pKi (hPR-A; hPR-A, read-out: PR Binding Ki) | PR Agonist CV-1 Cells Efficacy (%) (hPR [2]; CV-1 cells) | pEC50 (hPR [2]; [4]) | pEC50 (hPR [2]; [5])
1 | CC1=CC(C)(C)Nc2ccc3c(c21)C(C1CCC(C)=C1C)Oc1c(F)cc(F)cc1-3 (racemic) [Compound 71, (±)-(5l,1′l)-5-(2,3-dimethyl-2-cyclopentenyl)-7,9-difluoro-1,2-dihydro-2,2,4-trimethyl-5H-chromeno[3,4-f]quinoline] | < 5.00 | na (na = not active (i.e. efficacy of <20 and potency of >10,000)) | 0.25 | 8.41 | 8.41 | 139 | 8.47 | 8.47
2 | CC1=CC(C2Oc3ccc(F)cc3-c3ccc4c(c32)C(C)=CC(C)(C)N4)CCC1 (racemic) [Compound 24, (±)-(5l,1′l)-5-(3-methyl-2-cyclohexenyl)-9-fluoro-1,2-dihydro-2,2,4-trimethyl-5H-chromeno[3,4-f]quinoline] | < 5.00 | na (na = not active (i.e. efficacy of <20 and potency of >10,000)) | 0.25 | 8.19 | 8.19 | 168 | 8.44 | 8.44
3 | CC1=C[C@H]([C@H]2Oc3c(F)cc(F)cc3-c3ccc4c(c32)C(C)=CC(C)(C)N4)CCC1 (racemic) [Compound 34, (±)-(5l,1′l)-5-(3-methyl-2-cyclohexenyl)-7,9-difluoro-1,2-dihydro-2,2,4-trimethyl-5H-chromeno[3,4-f]quinoline] |  | na (na = not active (i.e. efficacy of <20 and potency of >10,000)) | 0.25 |  |  | 164 |  | 
